Assay results from patent US20100004222A1, “Amide Derivatives as Ion-Channel Ligands and Pharmaceutical Compositions and Methods of Using the Same” (Renovis, Inc., priority 2006, published 2010).
Where two headings read alike, the source gives them in different places.

Legend:
[1] = Pharmacokinetic evaluation following intravenous and oral administration in rats; format: in vivo; conditions: male, Sprague-Dawley, plasma, rat; for bioavailability: AUCinf (PO)/AUCinf (IV), dose normalized, PO 5 mg/kg, read-out: Oral Bioavailability F (%); for clearance: non-compartmental analysis, read-out: In vivo Clearance (converted)
Description: Male Sprague-Dawley rats are acclimatized for at least 24 hours prior to experiment initiation. During acclimation period, all animals receive food and water ad libitum. However, food but not water is removed from the animal's cages at least 12 hours before initiation of the experiment. During the first 3 hours of experimentation, the animals receive only water ad libitum. At least three animal each are tested for intravenous and oral dosage. For intravenous formulation, compounds were dissolved (0.25 to 1 mg/mL) in a mixture of 3% dimethyl sulfoxide, 40% PEG 400 and the rest percentage of 40% Captisol in water (w/v). For oral formulation, compounds of this invention are dissolved (2 mg/mL) in a mixture of 5% of 10% Tween 80 in water (v/v) and 95% of 0.5% methyl cellulose in water (w/v). The animals are weighed before dosing. The determined body weight is used to calculate the dose volume for each animal.
Dose volume(mL/kg)=1 mg/kg/formulation concentration(mg/mL)
In instances where the formulation concentrations were less than 0.5 mg/mL, the dosing volume is about 2 mL/kg. PO rats are typically dosed through oral gavage at 2.5 mL/kg to achieve a dose level of 5 mg/kg. For IV dosing, blood samples are collected (using a pre-heparinized syringe) via the jugular vein catheter at 2, 5, 15, 30, 60, 120, 180, 300, 480, and 1440 minutes post dosing. For PO dosing, blood samples are collected (using a pre-heparinized syringe) via the jugular vein catheter before dosing and at 5, 15, 30, 60, 120, 180, 300, 480, and 1440 minutes post dosing. About 250 uL of blood is obtained at each time point from the animal. Equal volumes of 0.9% normal saline are replaced to prevent dehydration. The whole blood samples are maintained on ice until centrifugation. Blood samples are then centrifuged at 14,000 rpm for 10 minutes at 4° C. and the upper plasma layer transferred into a clean vial and stored at −80° C. The resulting plasma samples are then analyzed by liquid chromatography-tandem mass spectrometry. Following the measurement of plasma samples and dosing solutions, plasma concentration-time curve is plotted. Plasma exposure is calculated as the area under the concentration-time curve extrapolated to time infinite (AUCinf). The AUCinf is averaged and the oral bioavailability (% F) for individual animal is calculated as:
AUCinf (PO)/AUCinf (IV), normalized to their respective dose levels. The % F is reported as the mean % F of all animals dosed orally with the compound of the invention at the specified level (Table 6).
In vivo clearance in the rat was calculated by conducting a non-compartmental analysis of the pharmacokinetic profile using WinNonlin software.

[2] = biological target: T1, VR1 (Homo sapiens, UniProt Q8NER1); experiment: Calcium uptake assay, low pH (proton) agonist; format: cell-based; set-up: expressed in transfected cells; host or cells: T-REx HEK 293 (Invitrogen), pcDNA5/TO vector
Target sequence in this assay (Q8NER1 whole entry): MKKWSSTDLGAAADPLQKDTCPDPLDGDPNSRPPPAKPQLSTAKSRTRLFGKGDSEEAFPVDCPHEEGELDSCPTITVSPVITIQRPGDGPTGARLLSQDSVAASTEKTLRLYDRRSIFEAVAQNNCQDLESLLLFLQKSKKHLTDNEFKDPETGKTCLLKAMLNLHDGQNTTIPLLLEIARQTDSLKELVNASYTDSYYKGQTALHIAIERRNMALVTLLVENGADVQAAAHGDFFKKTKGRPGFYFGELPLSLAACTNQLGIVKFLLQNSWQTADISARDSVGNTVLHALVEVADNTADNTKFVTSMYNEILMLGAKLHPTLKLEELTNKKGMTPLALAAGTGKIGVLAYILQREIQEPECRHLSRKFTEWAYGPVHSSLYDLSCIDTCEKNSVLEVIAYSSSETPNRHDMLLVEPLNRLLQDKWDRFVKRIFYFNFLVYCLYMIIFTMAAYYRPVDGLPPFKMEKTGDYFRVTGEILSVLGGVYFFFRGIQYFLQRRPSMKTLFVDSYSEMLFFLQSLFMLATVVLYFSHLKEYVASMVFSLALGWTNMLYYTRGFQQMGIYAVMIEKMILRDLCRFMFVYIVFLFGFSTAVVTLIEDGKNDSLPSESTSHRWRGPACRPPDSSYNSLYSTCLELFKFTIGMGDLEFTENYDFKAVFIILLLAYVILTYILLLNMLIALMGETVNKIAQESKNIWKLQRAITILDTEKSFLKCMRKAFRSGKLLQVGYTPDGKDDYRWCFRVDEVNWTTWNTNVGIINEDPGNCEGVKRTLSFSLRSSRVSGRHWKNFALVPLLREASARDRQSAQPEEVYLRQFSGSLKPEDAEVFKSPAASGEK

[3] = Half-life in human liver microsomes (HLM); format: in vitro ADME; conditions: pH 7.4, 1 μM compound, 0.78 mg/mL HLM, 37° C.
Description: Test compounds (1 μM) are incubated with 3.3 mM MgCl2 and 0.78 mg/mL HLM (HL101) in 100 mM potassium phosphate buffer (pH 7.4) at 37° C. on the 96-deep well plate. The reaction mixture is split into two groups, a non-P450 and a P450 group. NADPH is only added to the reaction mixture of the P450 group. An aliquot of samples of P450 group is collected at 0, 10, 30, and 60 min time point, where 0 min time point indicated the time when NADPH is added into the reaction mixture of P450 group. An aliquot of samples of non-P450 group is collected at −10 and 65 min time point. Collected aliquots are extracted with acetonitrile solution containing an internal standard. The precipitated protein is spun down in centrifuge (2000 rpm, 15 min). The compound concentration in supernatant is measured by LC/MS/MS system.
The half-life value is obtained by plotting the natural logarithm of the peak area ratio of compounds/internal standard versus time. The slope of the line of best fit through the points yields the rate of metabolism (k). This is converted to a half-life value using following equations: […]

[4] = biological target: T1, VR1; experiment: Acid stimulation assay (FDSS 6000); format: cell-based; conditions: final assay buffer pH5.8, 15 min pre-incubation
Description: The Acid-induced changes in the intracellular calcium concentration were monitored using FDSS 6000 (Hamamatsu Photonics, Japan), a fluorometric imaging system. The cell suspension in resting buffer (HBSS supplemented with 10 mM HEPES, pH 7.4) was pre-incubated with varying concentrations of the test compounds or resting buffer (buffer control) for 15 minutes at room temperature under dark conditions. The cells were automatically added the stimulating solution (HBSS supplemented with MES, final assay buffer pH5.8) by the FDSS 6000.
Target sequence in this assay (Q8NER1 whole entry, species assumed): as the sequence (Q8NER1 whole entry) above

[5] = HEK293, 0.3 μM compound, low pH (protons) as agonist, HEK 293 cells expressing hVR1, read-out: Low pH % Inhib. @ 0.3 μM

Row | SMILES | bioavailability [1] | clearance [1] | inhibition at 0.3 µM [2, 5] | half-life at 1 μM [3] | IC50 [4] | inhibition at 0.3 µM ([2]; HEK293, read-out: Low pH % Inhib. @ 0.3 μM)
1 | Cc1cc(/C=C/C(F)(F)F)ccc1C(=O)Nc1cccc2c1CC(O)CC2 (racemic) [Compound 309, (E)-N-(7-hydroxy-5,6,7,8-tetrahydronaphthylen-1-yl)-2-methyl-4-(3,3,3-trifluoroprop-1-enyl)benzamide] | 29% | 7.68 mL/min/kg | 107% | 135 min | 2 nM | 
2 | Cc1cc(/C=C/C(F)(F)F)ccc1C(=O)Nc1cccc2c1C[C@@H](O)CC2 (single isomer, unassigned) [Compound 313] |  |  | 106% |  | 14 nM | 
3 | Cc1cc(/C=C/C(F)(F)F)ccc1C(=O)Nc1cccc2ccc(O)cc12 [Compound 302, (E)-N-(7-hydroxynaphthalen-1-yl)-2-methyl-4-(3,3,3-trifluoroprop-1-enyl)benzamide] | 2% | 67.3 mL/min/kg |  | 36.6 min | 1 nM | 
4 | Cc1cc(/C=C/C(F)(F)F)ccc1C(=O)Nc1ccc2cc(C(C)(C)O)cnc2c1 [Compound 303, (E)-N-(3-(2-Hydroxypropan-2-yl)quinolin-7-yl)-2-methyl-4-(3,3,3-trifluoroprop-1-enyl)benzamide] | > 100% | 11.3 mL/min/kg | 90% | 57.6 min | 37 nM | 
5 | Cc1cc(/C=C/C(F)(F)F)ccc1C(=O)Nc1ccc2cc(C(C)O)cnc2c1 (stereo not drawn) [Compound 304, (E)-N-(3-(1-hydroxyethyl)quinolin-7-yl)-2-methyl-4-(3,3,3-trifluoroprop-1-enyl)benzamide] | > 100% | 20.6 mL/min/kg | 98% | 51 min | 4 nM | 
6 | Cc1cc(/C=C/C(F)(F)F)ccc1C(=O)Nc1ccc2cc(COCCO)cnc2c1 [Compound 305, (E)-N-(3-((2-Hydroxyethoxy)methyl)quinolin-7-yl)-2-methyl-4-(3,3,3-trifluoroprop-1-enyl)benzamide] | > 100% | 11.2 mL/min/kg | 105% | 16.8 min | 12 nM | 
7 | Cc1cc(/C=C/C(F)(F)F)ccc1C(=O)Nc1ccc2c(c1)C(O)CCC2 (stereo not drawn) [Compound 307, (E)-N-(8-hydroxy-5,6,7,8-tetrahydronaphthylen-2-yl)-2-methyl-4-(3,3,3-trifluoroprop-1-enyl)benzamide] |  |  | 75% |  | 118 nM | 
8 | Cc1cc(/C=C/C(F)(F)F)ccc1C(=O)Nc1ccc2cc(C(O)CO)cnc2c1 (stereo not drawn) [Compound 308, (E)-N-(3-(1,2-dihydroxyethyl)quinolin-7-yl)-2-methyl-4-(3,3,3-trifluoroprop-1-enyl)benzamide] | 71% | 12.2 mL/min/kg | 101% | 63 min | 11 nM | 
9 | Cc1cc(/C=C/C(F)(F)F)ccc1C(=O)Nc1cnc2c(c1)COC(CO)C2 (stereo not drawn) [Compound 310, (E)-N-(7-hydroxymethyl-7,8-dihydro-5H-pyrano[4,3-b]pyridin-3-yl)-2-methyl-4-(3,3,3-trifluoroprop-1-enyl)benzamide] |  |  | 71% |  | 109 nM | 
10 | Cc1cc(/C=C/C(F)(F)F)ccc1C(=O)Nc1cnc2c(c1)CCCC2 [Compound 312] |  |  | 97% |  | 103 nM | 
11 | CC(=O)n1ccc2cc(NC(=O)c3ccc(/C=C/C(F)(F)F)cc3C)cnc21 [Compound 408, (E)-N-(1-acetyl-1H-pyrrolo[2,3-b]pyridin-5-yl]-2-methyl-4-(3,3,3-trifluoroprop-1-enyl)benzamide] |  |  |  |  | 61 nM | 91%

Continued, in another order:

Row | bioavailability [1] | clearance [1] | inhibition at 0.3 µM [2, 5] | half-life at 1 μM [3] | IC50 [4] | SMILES | inhibition at 0.3 µM ([2]; HEK293, read-out: Low pH % Inhib. @ 0.3 μM)
12 |  |  | 121% |  | 23 nM | Cc1cc(/C=C/C(F)(F)F)ccc1C(=O)Nc1cccc2c1C[C@H](O)CC2 (single isomer, unassigned) [Compound 314] | 
13 | 47% | 16.5 mL/min/kg | 100% | 37.2 min | 11 nM | Cc1cc(/C=C/C(F)(F)F)ccc1C(=O)Nc1cnc2cc(CO)cnc2c1 [Compound 317, (E)-N-(7-(Hydroxymethyl)-1,5-naphthyridin-3-yl)-2-methyl-4-(3,33-trifluoroprop-1-enyl)benzamide] | 
14 |  |  | 72.3% |  | 147 nM | Cc1cc(/C=C/C(F)(F)F)ccc1C(=O)Nc1ccc2nccnc2c1 [Compound 325, (E)-2-methyl-N-(Quinoxalin-6-yl)-4-(3,3,3-trifluoroprop-1-enyl)benzamide] | 
15 |  |  | 88% |  | 94 nM | Cc1cc(/C=C/C(F)(F)F)ccc1C(=O)Nc1ccc2c(c1)N(S(C)(=O)=O)CC2 [Compound 401, (E)-N-(1-methanesulfonyl-2,3-dihydro-1H-indol-6-yl]-2-methyl-4-(3,3,3-trifluoroprop-1-enyl)benzamide] | 
16 |  |  | 81% |  | 147 nM | Cc1cc(/C=C/C(F)(F)F)ccc1C(=O)Nc1ccc2sc(C(C)O)nc2c1 (stereo not drawn) [Compound 403] | 
17 |  |  | 14% |  |  | Cc1cc(/C=C/C(F)(F)F)ccc1C(=O)Nc1ccc2c(c1)N(C(=O)C(C)(C)C)CC2 [Compound 405, (E)-N-[1-(2,2-dimethyl-propionyl)-2,3-dihydro-1H-indol-6-yl]-2-methyl-4-(3,3,3-trifluoro-prop-1-enyl)benzamide] | 
18 |  |  | 45% |  | 323 nM | CCC(=O)N1CCc2ccc(NC(=O)c3ccc(/C=C/C(F)(F)F)cc3C)cc21 [Compound 406, (E)-2-methyl-N-(1-propionylindoline-6-yl]-4-(3,3,3-trifluoro-prop-1-enyl)benzamide] | 
19 |  |  | 95% |  | 32 nM | Cc1cc(/C=C/C(F)(F)F)ccc1C(=O)Nc1ccc2c(c1)N(C(=O)CO)CC2 [Compound 407, (E)-N-(1-(2-hydroxyacetyl)-indolin-yl)-2-methyl-4-(3,3,3-trifluoro-Prop-1-enyl)benzamide] | 
20 |  |  | 103% |  | 59 nM | Cc1cc(/C=C/C(F)(F)F)ccc1C(=O)Nc1ccc2sc(C(C)(C)O)nc2c1 [Compound 409, (E)-N-(2-(2-hydroxypropan-2-yl)benzo[d]thiazol-5-yl)-2-methyl-4-(3,3,3-trifluoroprop-1-enyl)benzamide] | 
21 |  |  | 12% |  | 707 nM | CC(=O)c1nc2cc(NC(=O)c3ccc(/C=C/C(F)(F)F)cc3C)ccc2s1 [Compound 410, (E)-N-(2-acetylbenzo[d]thiazol-5-yl)-2-methyl-4-(3,3,3-trifluoroprop-1-enyl)benzamide] | 
22 |  |  | 102% |  | 28 nM | Cc1cc(/C=C/C(F)(F)F)ccc1C(=O)Nc1ccc2oc(CO)nc2c1 [Compound 411, (E)-N-(2-(hydroxymethyl)benzo[d]oxazol-5-yl)-2-methyl-(3,3,3-trifluoroprop-1-enyl)benzamide] | 
